Source: the NIST ThermoML archive (doi:10.1016/j.jct.2016.01.019)
Where “and” joins values, the source holds several entries; their conditions need not be identical. Equal values may be shown once.

Columns and labels:
[1] = Liquid; for mass density: 94.64 kPa, Vibrating tube method; for vapor or sublimation pressure: Ebulliometric method (Recirculating still)
[2] = refractive index (Na D-line) (dimensionless); settings: 94.64 kPa, Liquid, Standard Abbe refractometry
[3] = refractive index (other wavelength) (dimensionless); settings: 94.64 kPa, Liquid, Standard Abbe refractometry
[4] = xn = mol fraction of the nth substance listed; settings: 94.64 kPa, Liquid, Vibrating tube method
[5] = refractive index (Na D-line) (dimensionless); xn = mol fraction of the nth substance listed; settings: 94.64 kPa, Liquid, Standard Abbe refractometry

CC(O)CO (stereo not given) [1,2-propanediol]
Settings	mass density [kg/m3]	refractive index	vapor or sublimation pressure
[1], 293.15 K	1036.25	–	–
[1], 298.15 K	1032.61	–	–
[1], 303.15 K	1028.93	–	–
[1], 308.15 K	1025.19	–	–
[1], 313.15 K	1021.42	–	–
[1], 318.15 K	1017.65	–	–
[1], 389.39 K	–	–	6.67 kPa
[1], 396.95 K	–	–	10 kPa
[1], 402.95 K	–	–	13.33 kPa
[1], 408.6 K	–	–	16.61 kPa
[1], 412.95 K	–	–	19.96 kPa
[1], 413.23 K	–	–	19.99 kPa
[1], 417.15 K	–	–	23.34 kPa
[1], 421.2 K	–	–	26.62 kPa
[1], 421.21 K	–	–	26.66 kPa
[1], 424.5 K	–	–	30 kPa
[1], 427.16 K	–	–	33.33 kPa
[1], 427.23 K	–	–	33.57 kPa
[1], 429.55 K	–	–	36.61 kPa
[1], 432.05 K	–	–	40.01 kPa and 39.99 kPa
[1], 433.7 K	–	–	43.33 kPa
[1], 436.07 K	–	–	46.66 kPa
[1], 437.77 K	–	–	50 kPa
[1], 439.74 K	–	–	53.25 kPa
[1], 441.27 K	–	–	56.74 kPa
[1], 443.15 K	–	–	59.99 kPa
[2], 293.15 K	–	1.43219	–
[2], 298.15 K	–	1.4303	–
[2], 303.15 K	–	1.42921	–
[2], 308.15 K	–	1.42746	–
[2], 313.15 K	–	1.42566	–
[2], 318.15 K	–	1.42386	–

refractive index, [3]
Settings	Wavelength=404.7 nm	Wavelength=435.8 nm	Wavelength=486.1 nm	Wavelength=546.1 nm	Wavelength=587.6 nm	Wavelength=632.8 nm	Wavelength=644 nm	Wavelength=706.5 nm
293.15 K	1.445	1.44204	1.43722	1.43406	1.43227	1.43023	1.43008	1.42866
298.15 K	1.4429	1.43967	1.43566	1.43245	1.4305	1.429	1.4289	1.42701
303.15 K	1.44135	1.43785	1.43417	1.43096	1.42927	1.42774	1.42734	1.42571
308.15 K	1.43955	1.43622	1.43239	1.42919	1.42752	1.426	1.42565	1.42397
313.15 K	1.43771	1.43437	1.43055	1.42738	1.42572	1.4242	1.42386	1.42219
318.15 K	1.43584	1.43252	1.42875	1.42557	1.42392	1.42243	1.42208	1.42043

CC(O)CO (stereo not given) [1,2-propanediol] + OCCCO
x1 = 1
Settings	mass density, [4] [kg/m3]	refractive index, [5]
293.15 K	1036.25	1.43219
298.15 K	1032.61	1.4303
303.15 K	1028.93	1.42921
308.15 K	1025.19	1.42746
313.15 K	1021.42	1.42566
318.15 K	1017.65	1.42386

OCCCO [propan-1,3-diol]
Settings	mass density [kg/m3]	refractive index	vapor or sublimation pressure
[1], 293.15 K	1052.75	–	–
[1], 298.15 K	1049.67	–	–
[1], 303.15 K	1046.55	–	–
[1], 308.15 K	1043.45	–	–
[1], 313.15 K	1040.32	–	–
[1], 318.15 K	1037.18	–	–
[1], 414.2 K	–	–	6.65 kPa and 6.67 kPa
[1], 420.8 K	–	–	9.93 kPa
[1], 427.55 K	–	–	13.33 kPa
[1], 427.6 K	–	–	13.47 kPa
[1], 433.9 K	–	–	16.75 kPa
[1], 438.05 K	–	–	19.99 kPa
[1], 441.95 K	–	–	23.46 kPa
[1], 445.3 K	–	–	26.66 kPa
[1], 448.65 K	–	–	30.22 kPa
[1], 451.65 K	–	–	33.22 kPa
[1], 453.15 K	–	–	33.33 kPa
[1], 454.65 K	–	–	36.69 kPa
[1], 457.45 K	–	–	39.99 kPa
[1], 457.49 K	–	–	40.04 kPa
[1], 459.85 K	–	–	43.37 kPa
[1], 461.95 K	–	–	46.67 kPa and 46.66 kPa
[1], 463.95 K	–	–	49.97 kPa
[1], 465.45 K	–	–	53.24 kPa
[2], 293.15 K	–	1.43932	–
[2], 298.15 K	–	1.43796	–
[2], 303.15 K	–	1.43665	–
[2], 308.15 K	–	1.43523	–
[2], 313.15 K	–	1.43385	–
[2], 318.15 K	–	1.43255	–

refractive index, [3]
Settings	Wavelength=404.7 nm	Wavelength=435.8 nm	Wavelength=486.1 nm	Wavelength=546.1 nm	Wavelength=587.6 nm	Wavelength=632.8 nm	Wavelength=644 nm	Wavelength=706.5 nm
293.15 K	1.45177	1.44842	1.4444	1.44112	1.43939	1.43781	1.43746	1.43577
298.15 K	1.45037	1.447	1.44301	1.43975	1.43802	1.43645	1.43611	1.43441
303.15 K	1.44902	1.44566	1.44168	1.43844	1.43671	1.43514	1.4348	1.43312
308.15 K	1.44755	1.44419	1.44027	1.43699	1.43529	1.43375	1.4334	1.4317
313.15 K	1.44615	1.4428	1.43888	1.43562	1.43392	1.43238	1.43203	1.43035
318.15 K	1.44474	1.44141	1.43754	1.43429	1.43261	1.43109	1.43075	1.42908

OCCCO [propan-1,3-diol] + CC(O)CO
Settings	mass density, [4] [kg/m3]	refractive index, [5]
293.15 K, x2 = 0	1052.75	1.43932
293.15 K, x2 = 0.0985	1051.85	1.43907
293.15 K, x2 = 0.2023	1050.9	1.43879
293.15 K, x2 = 0.3015	1049.75	1.43838
293.15 K, x2 = 0.3961	1048.38	1.4378
293.15 K, x2 = 0.5009	1046.9	1.43695
293.15 K, x2 = 0.5961	1045.18	1.436
293.15 K, x2 = 0.6965	1043.35	1.43508
293.15 K, x2 = 0.7974	1041.33	1.4342
293.15 K, x2 = 0.8985	1038.71	1.4331
298.15 K, x2 = 0	1049.67	1.43796
298.15 K, x2 = 0.0985	1048.71	1.4376
298.15 K, x2 = 0.2023	1047.71	1.43721
298.15 K, x2 = 0.3015	1046.51	1.43671
298.15 K, x2 = 0.3961	1045.09	1.43612
298.15 K, x2 = 0.5009	1043.57	1.43533
298.15 K, x2 = 0.5961	1041.79	1.43455
298.15 K, x2 = 0.6965	1039.9	1.43364
298.15 K, x2 = 0.7974	1037.77	1.43275
298.15 K, x2 = 0.8985	1035.15	1.43161
303.15 K, x2 = 0	1046.55	1.43665
303.15 K, x2 = 0.0985	1045.54	1.43619
303.15 K, x2 = 0.2023	1044.49	1.43572
303.15 K, x2 = 0.3015	1043.23	1.43521
303.15 K, x2 = 0.3961	1041.76	1.43459
303.15 K, x2 = 0.5009	1040.18	1.4339
303.15 K, x2 = 0.5961	1038.34	1.43318
303.15 K, x2 = 0.6965	1036.39	1.4321
303.15 K, x2 = 0.7974	1034.25	1.4311
303.15 K, x2 = 0.8985	1031.52	1.43017
308.15 K, x2 = 0	1043.45	1.43523
308.15 K, x2 = 0.0985	1042.36	1.43478
308.15 K, x2 = 0.2023	1041.24	1.43424
308.15 K, x2 = 0.3015	1039.93	1.43377
308.15 K, x2 = 0.3961	1038.41	1.43324
308.15 K, x2 = 0.5009	1036.78	1.43241
308.15 K, x2 = 0.5961	1034.87	1.43161
308.15 K, x2 = 0.6965	1032.85	1.43076
308.15 K, x2 = 0.7974	1030.65	1.42967
308.15 K, x2 = 0.8985	1027.85	1.42858
313.15 K, x2 = 0	1040.32	1.43385
313.15 K, x2 = 0.0985	1039.16	1.4333
313.15 K, x2 = 0.2023	1037.97	1.43276
313.15 K, x2 = 0.3015	1036.61	1.43207
313.15 K, x2 = 0.3961	1035.02	1.43145
313.15 K, x2 = 0.5009	1033.34	1.43061
313.15 K, x2 = 0.5961	1031.36	1.43
313.15 K, x2 = 0.6965	1029.27	1.42906
313.15 K, x2 = 0.7974	1027.04	1.42818
313.15 K, x2 = 0.8985	1024.18	1.42699
318.15 K, x2 = 0	1037.18	1.43255
318.15 K, x2 = 0.0985	1035.96	1.43195
318.15 K, x2 = 0.2023	1034.7	1.43131
318.15 K, x2 = 0.3015	1033.26	1.43057
318.15 K, x2 = 0.3961	1031.62	1.42992
318.15 K, x2 = 0.5009	1029.89	1.42921
318.15 K, x2 = 0.5961	1027.83	1.42848
318.15 K, x2 = 0.6965	1025.68	1.42752
318.15 K, x2 = 0.7974	1023.38	1.42653
318.15 K, x2 = 0.8985	1020.43	1.42545
